Measurements as given in ChEMBL document CHEMBL5665443, “Enzyme Inhibitor Single Concentration assay results for EUbOPEN Chemogenomics Library” (2024).

Experiments:
[1] = target: T1, Endonuclease III-like protein 1 (Homo sapiens) (UniProt P78549); conditions: Hit No;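 also: enzyme assay tracking NTHL1 cutting and release of a quenched double-stranded DNA oligo substrate, read as fluorescence at 594 nm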
T1 sequence (whole entry): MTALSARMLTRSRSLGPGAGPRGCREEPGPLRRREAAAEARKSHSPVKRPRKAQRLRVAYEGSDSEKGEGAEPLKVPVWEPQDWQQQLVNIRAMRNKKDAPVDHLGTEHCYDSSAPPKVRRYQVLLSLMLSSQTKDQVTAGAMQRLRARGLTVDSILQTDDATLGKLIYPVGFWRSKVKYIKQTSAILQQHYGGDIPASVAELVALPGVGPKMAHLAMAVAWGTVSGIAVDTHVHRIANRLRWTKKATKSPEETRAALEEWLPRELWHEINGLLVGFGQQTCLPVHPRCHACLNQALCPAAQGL
Description: Inhibition of NTHL1 by quantifying inhibition of NTHL1-mediated cleavage and dissociation of quenched duplex DNA oligonucleotides, measured as fluorescence at 594 nm.

[2] = target: Uracil-DNA glycosylase (Homo sapiens) (UniProt P13051); conditions: Hit No;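 also: UNG excision on a quenched double-stranded DNA oligo probe, with APE1 added for strand incision and turnover, read as fluorescence at 594 nm as strands separate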
Description: Inhibition of UNG by quantifying inhibition of UNG-mediated cleavage and dissociation of quenched duplex DNA oligonucleotides, measured as fluorescence at 594 nm. To generate a functional strand incision and increase turn-over this assay is coupled to APE1.

[3] = target: T2, Endonuclease 8-like 2 (Homo sapiens) (UniProt Q969S2); conditions: Hit No;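 also: fluorescence at 594 nm reports NEIL2 cutting and release of a quenched double-stranded DNA oligo substrate, reduced signal read as inhibition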
T2 sequence (whole entry): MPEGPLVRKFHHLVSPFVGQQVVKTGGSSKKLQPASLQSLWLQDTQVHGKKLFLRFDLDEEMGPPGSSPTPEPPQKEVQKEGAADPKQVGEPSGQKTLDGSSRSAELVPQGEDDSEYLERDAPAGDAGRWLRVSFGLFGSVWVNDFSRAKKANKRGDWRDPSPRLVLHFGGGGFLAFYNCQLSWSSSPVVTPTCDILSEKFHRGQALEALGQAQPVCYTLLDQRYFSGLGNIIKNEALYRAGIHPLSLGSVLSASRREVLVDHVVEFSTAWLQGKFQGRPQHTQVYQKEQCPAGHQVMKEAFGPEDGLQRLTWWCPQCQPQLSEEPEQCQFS
Description: Inhibition of NEIL2 by quantifying inhibition of NEIL2-mediated cleavage and dissociation of quenched duplex DNA oligonucleotides, measured as fluorescence at 594 nm.

[4] = target: T3, Single-strand selective monofunctional uracil DNA glycosylase (Homo sapiens) (UniProt Q53HV7); conditions: Hit No;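 also: enzymatic SMUG1 assay coupled with APE1, reading fluorescence at 594 nm released when a quenched double-stranded DNA oligonucleotide substrate is cleaved and separated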
T3 sequence (whole entry): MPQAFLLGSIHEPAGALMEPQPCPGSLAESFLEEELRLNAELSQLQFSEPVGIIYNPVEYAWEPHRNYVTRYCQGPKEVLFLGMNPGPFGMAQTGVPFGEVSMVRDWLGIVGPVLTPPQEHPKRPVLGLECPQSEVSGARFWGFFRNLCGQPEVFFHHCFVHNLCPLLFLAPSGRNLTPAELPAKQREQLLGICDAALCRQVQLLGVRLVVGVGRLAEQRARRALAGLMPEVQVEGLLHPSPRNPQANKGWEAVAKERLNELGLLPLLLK
Description: Inhibition of SMUG1 by quantifying inhibition of SMUG1-mediated cleavage and dissociation of quenched duplex DNA oligonucleotides, measured as fluorescence at 594 nm. To generate a functional strand incision and increase turn-over this assay is coupled to APE1.

[5] = target: N-glycosylase/DNA lyase (Homo sapiens) (UniProt O15527); conditions: Hit No;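 also: OGG1 cleavage of a quenched duplex DNA oligonucleotide, coupled to APE1 for strand incision, read as fluorescence at 594 nm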
Description: Inhibition of OGG1 by quantifying inhibition of OGG1-mediated cleavage and dissociation of quenched duplex DNA oligonucleotides, measured as fluorescence at 594 nm. To generate a functional strand incision and increase turn-over this assay is coupled to APE1.

[6] = target: Endonuclease 8-like 1 (Homo sapiens) (UniProt Q96FI4); conditions: Hit No;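 also: fluorescence at 594 nm from quenched duplex DNA oligonucleotides released by NEIL1 cleavage and strand separation, reported as reduction of this enzyme activity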
Description: Inhibition of NEIL1 by quantifying inhibition of NEIL1-mediated cleavage and dissociation of quenched duplex DNA oligonucleotides, measured as fluorescence at 594 nm.

[7] = target: G/T mismatch-specific thymine DNA glycosylase (Homo sapiens) (UniProt Q13569); conditions: Compound Concentration 10.0 uM, Hit No;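 also: human TDG cleavage of quenched duplex DNA oligonucleotides coupled to APE1, strand release read as fluorescence at 594 nm, inhibition of TDG activity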
Sequence of G/T mismatch-specific thymine DNA glycosylase (Homo sapiens) (Q13569 whole entry): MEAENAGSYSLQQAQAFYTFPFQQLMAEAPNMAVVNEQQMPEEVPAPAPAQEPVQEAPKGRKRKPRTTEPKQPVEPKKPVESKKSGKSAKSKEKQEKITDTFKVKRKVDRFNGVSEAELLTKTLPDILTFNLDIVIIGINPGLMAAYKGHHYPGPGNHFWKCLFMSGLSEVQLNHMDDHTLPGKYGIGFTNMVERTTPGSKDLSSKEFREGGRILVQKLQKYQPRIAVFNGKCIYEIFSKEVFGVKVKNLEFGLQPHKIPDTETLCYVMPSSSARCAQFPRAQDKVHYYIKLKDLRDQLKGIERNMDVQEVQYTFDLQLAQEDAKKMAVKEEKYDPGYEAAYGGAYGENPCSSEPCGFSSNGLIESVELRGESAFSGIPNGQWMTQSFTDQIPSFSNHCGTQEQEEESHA
Description: Inhibition of TDG by quantifying inhibition of TDG-mediated cleavage and dissociation of quenched duplex DNA oligonucleotides, measured as fluorescence at 594 nm. To generate a functional strand incision and increase turn-over this assay is coupled to APE1.

Sequence of Endonuclease 8-like 1 (Homo sapiens) (Q96FI4 whole entry): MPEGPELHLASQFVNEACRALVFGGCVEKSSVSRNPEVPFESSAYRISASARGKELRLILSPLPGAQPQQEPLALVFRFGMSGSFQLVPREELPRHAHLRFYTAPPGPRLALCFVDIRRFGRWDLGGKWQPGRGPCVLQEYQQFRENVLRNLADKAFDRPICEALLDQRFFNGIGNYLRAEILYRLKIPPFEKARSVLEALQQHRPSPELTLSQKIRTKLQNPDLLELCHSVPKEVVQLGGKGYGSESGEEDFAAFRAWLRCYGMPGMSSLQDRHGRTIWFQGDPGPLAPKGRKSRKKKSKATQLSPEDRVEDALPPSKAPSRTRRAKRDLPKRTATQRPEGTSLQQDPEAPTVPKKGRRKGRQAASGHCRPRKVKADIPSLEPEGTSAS
Sequence of N-glycosylase/DNA lyase (Homo sapiens) (O15527 whole entry): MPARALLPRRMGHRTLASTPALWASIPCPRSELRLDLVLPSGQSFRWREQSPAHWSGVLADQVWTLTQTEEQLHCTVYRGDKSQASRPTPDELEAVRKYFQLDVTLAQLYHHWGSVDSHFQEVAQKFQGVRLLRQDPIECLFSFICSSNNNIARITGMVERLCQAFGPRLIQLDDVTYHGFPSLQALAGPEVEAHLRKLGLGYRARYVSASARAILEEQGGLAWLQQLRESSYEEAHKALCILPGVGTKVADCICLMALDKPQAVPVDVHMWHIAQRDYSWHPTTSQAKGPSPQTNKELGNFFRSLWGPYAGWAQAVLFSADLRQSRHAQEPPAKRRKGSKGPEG
Sequence of Uracil-DNA glycosylase (Homo sapiens) (P13051 whole entry): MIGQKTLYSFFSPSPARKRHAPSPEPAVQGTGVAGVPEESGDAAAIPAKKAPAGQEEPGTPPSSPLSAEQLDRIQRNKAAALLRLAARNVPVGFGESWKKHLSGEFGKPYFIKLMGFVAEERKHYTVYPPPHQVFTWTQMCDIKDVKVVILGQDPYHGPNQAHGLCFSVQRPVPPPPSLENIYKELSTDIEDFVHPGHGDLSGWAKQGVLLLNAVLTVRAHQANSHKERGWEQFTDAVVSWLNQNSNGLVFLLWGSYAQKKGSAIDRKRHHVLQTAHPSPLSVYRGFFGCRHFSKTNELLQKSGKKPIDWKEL

SMILES	inhibition ([1]; Compound Concentration 1.0 uM) [%]	inhibition ([2]; Compound Concentration 1.0 uM) [%]	inhibition ([3]; Compound Concentration 1.0 uM) [%]	inhibition ([4]; Compound Concentration 1.0 uM) [%]	inhibition ([5]; Compound Concentration 1.0 uM) [%]	inhibition ([6]; Compound Concentration 1.0 uM) [%]	inhibition ([1]; Compound Concentration 10.0 uM) [%]	inhibition ([2]; Compound Concentration 10.0 uM) [%]	inhibition ([3]; Compound Concentration 10.0 uM) [%]	inhibition ([4]; Compound Concentration 10.0 uM) [%]	inhibition ([5]; Compound Concentration 10.0 uM) [%]	inhibition ([6]; Compound Concentration 10.0 uM) [%]	inhibition [7] [%]
Cn1cc(C2=C(c3cn(C4CCN(Cc5ccccn5)CC4)c4ccccc34)C(=O)NC2=O)c2ccccc21	2.88	-3.81	-6.23	6.08	-2.56	-7.52							
NCCc1cn(S(=O)(=O)c2c(Cl)nc3sccn23)c2ccccc12							-1.91	-2.77	-1.62	3.77	16.8	6.53	
O=c1c2cccn2c2ccccc2n1CCCN1CCC(c2ccc(Cl)cc2)CC1							6.32	-8.09	7.75	5.73	-2.48	10.5	2.78
C[C@H]1[C@H]2CC[C@H]3[C@@H]4CC=C5C[C@@H](N(C)C)CC[C@]5(C)[C@H]4CC[C@]23CN1C							7.05	-8.6	-7.72	4.86	-2.15	-0.649	5.99
CC(C)(C)c1cc(C(C)(C)C)c(NC(=O)c2c[nH]c3ccccc3c2=O)cc1O							14.6	1.6	5.25	6.2	-6.32	1.34	
CN(C(=O)Cc1ccc(Cl)c(Cl)c1)C(CN1CCCC1)c1cccc(OCC(=O)O)c1 (stereo unspecified)							13.7	-7.78	-9.22	-2.65	-6.71	-0.5	-1.52
COc1ncc(F)cc1CNc1ccc(Cc2c[nH]c3ncc(C)cc23)c(F)n1							-7.58	6.92	2.39	18.6	5.69	1.33	37.9
CN(c1ncccc1CNc1ccnc(-c2nc3c(F)c(Cl)ccc3[nH]2)n1)S(C)(=O)=O							9.15	-1.37	-8.38	9.82	-6.69	1.59	35.5
COc1cc(OC)c(NC(=O)c2ccc(Cc3cc4c(cc3C)C(C)(C)CCC4(C)C)o2)c(OC)c1							19.5	-5.24	14.7	-2.6	2.66	7.51	1.84
OCCN1CCN(CCCN2c3ccccc3Sc3ccc(Cl)cc32)CC1							3.39	-5.33	12.5	-0.808	-8.6	17.1	3.7
O=C(Nc1ccc(Cl)cc1)Nc1cccc(-c2cccc(N3CCCC3)n2)c1							-0.275	-9.34	-4.23	-0.712	-1.14	8.84	
Cc1c(P(=S)(c2ccccc2)c2ccccc2)n2ccccc2[n+]1C/C=C/c1ccccc1							23.9	-7.24	-6.97	-6.48	1.08	11.1	35.9
CC(=O)c1ccc2c(c1)[C@@H]1C=CC[C@@H]1[C@H](c1cc3c(cc1Br)OCO3)N2							11.4	-3.58	9.25	5.25	2.12	1.72	13.5
CCNC1(C(N)=O)CCN(c2ncnc3c2nc(-c2ccccc2Cl)n3-c2ccc(Cl)cc2)CC1							17.3	-6.19	3.76	12.2	-3.75	1.13	11.7
COc1ccc(NS(=O)(=O)c2sc3ccc(Cl)cc3c2C)cc1N1CCNCC1							-3.94	-3.02	1.51	12	-6.55	16	18
